The record followed here is patent publication US9365522B2, “Pyrazole amide derivative” (AMGEN INC., priority 2015, dated 2016).

For the assay, the target named is T1, human RORγ-LBD (Homo sapiens, UniProt P51449).
T1 construct: made in house; host or cells: E. coli (BL-21)
T1 sequence (P51449 262-518): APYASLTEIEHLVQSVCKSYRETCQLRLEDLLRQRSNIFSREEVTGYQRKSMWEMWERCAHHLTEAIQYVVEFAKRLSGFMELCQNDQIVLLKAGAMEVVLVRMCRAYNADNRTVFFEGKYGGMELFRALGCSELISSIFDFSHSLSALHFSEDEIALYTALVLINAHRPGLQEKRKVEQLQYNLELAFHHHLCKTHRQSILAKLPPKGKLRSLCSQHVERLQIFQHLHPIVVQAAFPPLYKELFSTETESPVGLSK
The experiment in a line: ROR gamma coactivator peptide recruitment Alphascreen assay (RORγ-LBD binding to GRIP1 coactivator peptide). The conditions noted are these: 5 nM human RORγ-LBD, 30 nM 7-β-hydroxycholesterol, 50 nM biotinylated GRIP1 coactivator peptide, overnight incubation at room temperature; read-out: result (pIC50, RORγ coactivator peptide recruitment Alphascreen assay) (converted). It counts as biochemical. The essentials: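 Alphascreen proximity read-out after overnight room-temperature incubation, yielding pIC50 from 1-in-2 compound series (2.5% DMSO final). Mixture: 50 nM biotin-GRIP1 peptide, 30 nM 7-β-hydroxycholesterol agonist, 5 nM recombinant 6×His:Flag human RORγ-LBD (aa 262-518), 50 mM HEPES pH 7.4.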
In general terms: In Alpha technology, singlet oxygen from a donor bead excites a nearby acceptor bead.
Turning to `CC(C)(C)CN(CC(=O)c1c(Cl)cncc1Cl)C(=O)c1cnn([C@H]2CC[C@](C)(C(=O)O)C[C@H]2F)c1C(F)(F)F` [Example 868, (1S,3R,4S)-4-(4-((2-(3,5-dichloro-4-pyridinyl)-2-oxoethyl)(2,2-dimethylpropyl)carbamoyl)-5-(trifluoromethyl)-1H-pyrazol-1-yl)-3-fluoro-1-methylcyclohexanecarboxylic acid], the IC50 is 4.57 nM.

In the case of `CC(C)(C)CN(CC(=O)c1c(Cl)cncc1Cl)C(=O)c1cnn([C@@H]2CC[C@@](C)(C(=O)O)C[C@@H]2F)c1C(F)(F)F` [Example 869, (1R,3S,4R)-4-(4-((2-(3,5-dichloro-4-pyridinyl)-2-oxoethyl)(2,2-dimethylpropyl)carbamoyl)-5-(trifluoromethyl)-1H-pyrazol-1-yl)-3-fluoro-1-methylcyclohexanecarboxylic acid], the IC50 is 13.8 nM.

In the case of `CC(C)(C)CN(CC(=O)c1c(Cl)cncc1Cl)C(=O)c1cnn([C@H]2CC[C@@](C)(C(=O)O)C[C@@H]2F)c1C(F)(F)F` [Example 870, (1R,3S,4S)-4-(4-((2-(3,5-dichloro-4-pyridinyl)-2-oxoethyl)(2,2-dimethylpropyl)carbamoyl)-5-(trifluoromethyl)-1H-pyrazol-1-yl)-3-fluoro-1-methylcyclohexanecarboxylic acid], the IC50 is 575 nM.

On to `CC(C)(C)CN(CC(=O)c1c(Cl)cncc1Cl)C(=O)c1cnn([C@@H]2CC[C@]3(C(=O)O)CCC[C@@H]3C2)c1C(F)(F)F` [Example 871], for which the IC50 is 5.01 nM.

Consider `COc1ncc(Cl)c(CCN(CC(C)(C)C)C(=O)c2cnn([C@H]3CC[C@](C)(C(=O)O)CC3)c2C(F)(F)F)c1Cl` [Example 872, trans-4-(4-((2-(3,5-dichloro-2-methoxy-4-pyridinyl)ethyl)(2,2-dimethylpropyl)carbamoyl)-5-(trifluoromethyl)-1H-pyrazol-1-yl)-1-methylcyclohexanecarboxylic acid], for which the IC50 is 97.7 nM.

As for `C[C@H]1C[C@@H](n2ncc(C(=O)N(CC(=O)c3c(Cl)cncc3Cl)CC(C)(C)C)c2C(F)(F)F)CC[C@]1(C)C(=O)O` [Example 873, (1S,2S,4S)-4-(4-((2-(3,5-dichloro-4-pyridinyl)-2-oxoethyl)(2,2-dimethylpropyl)carbamoyl)-5-(trifluoromethyl)-1H-pyrazol-1-yl)-1,2-dimethylcyclohexanecarboxylic acid], the IC50 was 5.25 nM.

On to `C[C@@H]1C[C@H](n2ncc(C(=O)N(CC(=O)c3c(Cl)cncc3Cl)CC(C)(C)C)c2C(F)(F)F)CC[C@@]1(C)C(=O)O` [Example 874, (1R,2R,4R)-4-(4-((2-(3,5-dichloro-4-pyridinyl)-2-oxoethyl)(2,2-dimethylpropyl)carbamoyl)-5-(trifluoromethyl)-1H-pyrazol-1-yl)-1,2-dimethylcyclohexanecarboxylic acid], for which the IC50 is 7.76 nM.

With `C[C@H]1C[C@H](n2ncc(C(=O)N(CC(=O)c3c(Cl)cncc3Cl)CC(C)(C)C(F)(F)F)c2C(F)(F)F)CC[C@H]1C(=O)O` [Example 875, (1R,2S,4R)-4-(4-((2-(3,5-dichloro-4-pyridinyl)-2-oxoethyl)(3,3,3-trifluoro-2,2-dimethylpropyl)carbamoyl)-5-(trifluoromethyl)-1H-pyrazol-1-yl)-2-methylcyclohexanecarboxylic acid], the IC50 was 11.7 nM.

For the compound `CC(C)(C)CN(CC(=O)c1c(Cl)cncc1Cl)C(=O)c1cnn([C@H]2CC[C@@]3(C(=O)O)CCC[C@H]3C2)c1C(F)(F)F` [Example 876, (3aS,6S,7aS )-6-(4-((2-(3,5-dichloropyridin-4-yl)-2-oxoethyl)(neopentyl)carbamoyl)-5-(trifluoromethyl)-1H-pyrazol-1-yl)octahydro-1H-indene-3a-carboxylic acid], the IC50 was 6.17 nM.

With `CC(C)(C)CN(CC(=O)c1c(Cl)cncc1Cl)C(=O)c1cnn([C@@H]2CC[C@]3(C(=O)O)CCC[C@@H]3C2)c1C(F)(F)F` [Example 877, (3aR,6R,7aR)-6-(4-((2-(3,5-dichloropyridin-4-yl)-2-oxoethyl)(neopentyl)carbamoyl)-5-(trifluoromethyl)-1H-pyrazol-1-yl)octahydro-1H-indene-3a-carboxylic acid], the IC50 is 6.17 nM.

`C[C@@H]1C[C@H](n2ncc(C(=O)N(CC(=O)c3c(Cl)cncc3Cl)CC(C)(C)C(F)(F)F)c2C(F)(F)F)CC[C@H]1C(=O)O` [Example 878, (1R,2R,4R)-4-(4-((2-(3,5-dichloro-4-pyridinyl)-2-oxoethyl)(3,3,3-trifluoro-2,2-dimethylpropyl)carbamoyl)-5-(trifluoromethyl)-1H-pyrazol-1-yl)-2-methylcyclohexanecarboxylic acid]: the IC50 is 3.89 nM.

`C[C@@H]1C[C@H](n2ncc(C(=O)N(CC(=O)c3c(Cl)cncc3Cl)C[C@]34CC[C@H](CC3)O4)c2C(F)(F)F)CC[C@H]1C(=O)O` [Example 880, (1R,2R,4R)-4-(4-((2-(3,5-dichloro-4-pyridinyl)-2-oxoethyl)((1s,4s)-7-oxabicyclo[2.2.1]hept-1-ylmethyl)carbamoyl)-5-(trifluoromethyl)-1H-pyrazol-1-yl)-2-methylcyclohexanecarboxylic acid]: the IC50 is 16.2 nM.

In the case of `C[C@H]1C[C@@H](n2ncc(C(=O)N(CC(=O)c3c(Cl)cncc3Cl)C[C@]34CC[C@H](CC3)O4)c2C(F)(F)F)CC[C@@H]1C(=O)O` [Example 881, (1S,2S,4S)-4-(4-((2-(3,5-dichloro-4-pyridinyl)-2-oxoethyl)((1s,4s)-7-oxabicyclo[2.2.1]hept-1-ylmethyl)carbamoyl)-5-(trifluoromethyl)-1H-pyrazol-1-yl)-2-methylcyclohexanecarboxylic acid], the IC50 is 24.5 nM.

As for `C[C@@H]1C[C@@](C)(C(=O)O)CC[C@@H]1n1ncc(C(=O)N(CC(=O)c2c(Cl)cncc2Cl)CC(C)(C)C)c1C(F)(F)F` [Example 882, (1S,3R,4S)-4-(4-((2-(3,5-dichloro-4-pyridinyl)-2-oxoethyl)(2,2-dimethylpropyl)carbamoyl)-5-(trifluoromethyl)-1H-pyrazol-1-yl)-1,3-dimethylcyclohexanecarboxylic acid], the IC50 was 646 nM.

As for `C[C@H]1C[C@](C)(C(=O)O)CC[C@H]1n1ncc(C(=O)N(CC(=O)c2c(Cl)cncc2Cl)CC(C)(C)C)c1C(F)(F)F` [Example 883, (1R,3S,4R)-4-(4-((2-(3,5-dichloro-4-pyridinyl)-2-oxoethyl)(2,2-dimethylpropyl)carbamoyl)-5-(trifluoromethyl)-1H-pyrazol-1-yl)-1,3-dimethylcyclohexanecarboxylic acid], the IC50 is 708 nM.

For `CC(C)(CN(CC(=O)c1c(Cl)cncc1Cl)C(=O)c1cnn([C@H]2CC[C@H](CC(=O)O)CC2)c1C(F)(F)F)C(F)(F)F` [Example 884, (trans-4-(4-((2-(3,5-dichloro-4-pyridinyl)-2-oxoethyl)(3,3,3-trifluoro-2,2-dimethylpropyl)carbamoyl)-5-(trifluoromethyl)-1H-pyrazol-1-yl)cyclohexyl)acetic acid], the IC50 is 1.82 nM.

With `CC(C)(C)CN(CCc1c(Cl)c[nH]c(=O)c1Cl)C(=O)c1cnn([C@H]2CC[C@](C)(C(=O)O)CC2)c1C(F)(F)F` [Example 885, trans-4-(4-((2-(3,5-dichloro-2-oxo-1,2-dihydro-4-pyridinyl)ethyl)(2,2-dimethylpropyl)carbamoyl)-5-(trifluoromethyl)-1H-pyrazol-1-yl)-1-methylcyclohexanecarboxylic acid], the IC50 was 741 nM.

In the case of `C[C@@H]1C[C@@H](n2ncc(C(=O)N(CCc3c(Cl)c[nH]c(=O)c3Cl)CC(C)(C)C)c2C(F)(F)F)CC[C@@H]1C(=O)O` [Example 886, (1S,2R,4S)-4-(4-((2-(3,5-dichloro-2-oxo-1,2-dihydro-4-pyridinyl)ethyl)(2,2-dimethylpropyl)carbamoyl)-5-(trifluoromethyl)-1H-pyrazol-1-yl)-2-methylcyclohexane carboxylic acid], the IC50 was 468 nM.

Consider `COc1ncc(Cl)c(CCN(CC(C)(C)C)C(=O)c2cnn([C@H]3CC[C@H](C(=O)O)[C@H](C)C3)c2C(F)(F)F)c1Cl` [Example 887, (1S,2R,4S)-4-(4-((2-(3,5-dichloro-2-methoxy-4-pyridinyl)ethyl)(2,2-dimethylpropyl)carbamoyl)-5-(trifluoromethyl)-1H-pyrazol-1-yl)-2-methylcyclohexanecarboxylic acid], for which the IC50 is 16.2 nM.

Take `COc1cc(Cl)c(C(=O)CN(CC2(F)CCCC2)C(=O)c2cnn([C@H]3CC[C@H](CC(=O)O)CC3)c2C(F)(F)F)c(Cl)c1` [Example 888, (trans-4-(4-((2-(2,6-dichloro-4-methoxyphenyl)-2-oxoethyl)((1-fluorocyclopentyl)methyl)carbamoyl)-5-(trifluoromethyl)-1H-pyrazol-1-yl)cyclohexyl)acetic acid]: the IC50 is 3.24 nM.

Regarding `COc1cc(Cl)c(C(=O)CN(Cc2ccc(F)cc2)C(=O)c2cnn([C@H]3CC[C@H](CC(=O)O)CC3)c2C(F)(F)F)c(Cl)c1` [Example 889, (trans-4-(4-((2-(2,6-dichloro-4-methoxyphenyl)-2-oxoethyl)(4-fluorobenzyl)carbamoyl)-5-(trifluoromethyl)-1H-pyrazol-1-yl)cyclohexyl)acetic acid], the IC50 was 2.04 nM.
